This is an account of results in patent US10696672B2 (Pliant Therapeutics, Inc., priority 2016, dated 2020).

SMILES strings stand for the structures. Where only a bound is given, the exact number is not on record here.

A word on the IC50: it is the concentration needed to halve the response being measured.

Chain of recombinant human integrin αvβ6 (P06756 31-992): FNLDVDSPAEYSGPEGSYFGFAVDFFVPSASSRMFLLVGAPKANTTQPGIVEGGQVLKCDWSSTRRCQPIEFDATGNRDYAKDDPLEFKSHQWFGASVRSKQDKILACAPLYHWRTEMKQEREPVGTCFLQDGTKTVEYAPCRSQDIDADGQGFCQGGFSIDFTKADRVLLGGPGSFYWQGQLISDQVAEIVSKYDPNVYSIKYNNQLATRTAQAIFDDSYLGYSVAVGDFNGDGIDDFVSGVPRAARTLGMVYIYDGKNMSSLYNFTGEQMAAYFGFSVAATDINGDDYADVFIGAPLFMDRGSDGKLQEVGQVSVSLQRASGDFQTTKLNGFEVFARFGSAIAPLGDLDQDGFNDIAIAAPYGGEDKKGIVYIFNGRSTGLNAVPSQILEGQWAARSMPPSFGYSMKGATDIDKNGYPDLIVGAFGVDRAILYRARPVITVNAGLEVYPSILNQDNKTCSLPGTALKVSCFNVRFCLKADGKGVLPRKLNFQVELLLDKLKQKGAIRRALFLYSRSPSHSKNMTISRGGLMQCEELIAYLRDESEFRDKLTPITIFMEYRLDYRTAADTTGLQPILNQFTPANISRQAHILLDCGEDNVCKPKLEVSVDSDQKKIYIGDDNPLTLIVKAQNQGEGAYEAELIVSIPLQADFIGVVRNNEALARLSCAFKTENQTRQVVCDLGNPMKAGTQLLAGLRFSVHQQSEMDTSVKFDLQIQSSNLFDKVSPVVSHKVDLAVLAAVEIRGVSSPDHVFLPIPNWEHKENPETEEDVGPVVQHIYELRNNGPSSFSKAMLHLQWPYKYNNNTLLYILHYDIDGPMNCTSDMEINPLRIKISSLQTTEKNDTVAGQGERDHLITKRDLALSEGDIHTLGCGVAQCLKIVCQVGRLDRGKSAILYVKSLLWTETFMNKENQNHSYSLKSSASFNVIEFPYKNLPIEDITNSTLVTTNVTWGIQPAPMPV
Chain of recombinant human integrin αvβ6 (P18564 22-707): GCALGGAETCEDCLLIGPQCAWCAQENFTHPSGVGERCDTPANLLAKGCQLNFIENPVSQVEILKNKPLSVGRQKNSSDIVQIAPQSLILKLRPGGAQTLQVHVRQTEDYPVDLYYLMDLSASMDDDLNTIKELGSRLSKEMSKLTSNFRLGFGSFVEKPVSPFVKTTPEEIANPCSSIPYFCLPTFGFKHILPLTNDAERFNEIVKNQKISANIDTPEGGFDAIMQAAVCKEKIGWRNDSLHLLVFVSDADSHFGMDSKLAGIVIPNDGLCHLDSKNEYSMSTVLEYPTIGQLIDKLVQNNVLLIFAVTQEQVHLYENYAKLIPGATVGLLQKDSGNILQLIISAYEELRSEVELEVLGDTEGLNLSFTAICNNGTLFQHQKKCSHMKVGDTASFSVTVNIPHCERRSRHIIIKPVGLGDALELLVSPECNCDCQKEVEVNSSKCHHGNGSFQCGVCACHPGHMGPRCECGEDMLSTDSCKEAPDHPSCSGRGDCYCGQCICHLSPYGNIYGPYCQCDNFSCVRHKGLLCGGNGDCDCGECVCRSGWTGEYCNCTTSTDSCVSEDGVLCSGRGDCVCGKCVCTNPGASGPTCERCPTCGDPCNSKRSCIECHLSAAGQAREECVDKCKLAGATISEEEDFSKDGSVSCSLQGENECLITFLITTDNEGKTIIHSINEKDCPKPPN

The assay concerns the target recombinant human integrin αvβ6 (Homo sapiens (Human), UniProt P06756+P18564). Description: Solid phase integrin αvβ6 binding assay. To be noted: plate-coated integrin; recombinant TGFβ1 LAP 0.67 ug/ml as ligand; 2 hours at 25° C.; read-out: αvβ6 Inhibition IC50 (nM) - range. The method, boiled down: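 Plates coated with recombinant human αvβ6 (2 ug/ml); compounds and TGFβ1 LAP (0.67 ug/ml) incubated 2 h at 25° C in TBS buffer with 0.5 mM MnCl2. Bound LAP detected with biotin-anti-hLAP and peroxidase-streptavidin; IC50 from four-parameter logistic fit.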
Consider `O=C(O)[C@H](CCN1CC[C@@H](OCCc2ccc3c(n2)NCCC3)C1)NC(=O)[C@@H]1CCCN1c1ccccc1` [Compound 133], for which the IC50 lay within 250 to 1000 nM. Turning to `O=C(N[C@@H](CCN1CC[C@@H](OCCc2ccc3c(n2)NCCC3)C1)C(=O)O)[C@H]1CCN(c2ccccn2)C1` [Compound 126], the IC50 was > 1000 nM. Regarding `O=C(N[C@@H](CCN1CC[C@@H](OCCc2ccc3c(n2)NCCC3)C1)C(=O)O)c1c(Cl)cccc1Cl` [Compound 114], the IC50 was in the range of 250 to 1000 nM. As to `Cc1cc(C)n(-c2cccc(C(=O)N[C@@H](CCN3CCC(CCc4ccc5c(n4)NCCC5)CC3)C(=O)O)c2)n1` [Compound 12a, (S)-2-(3-(3,5-dimethyl-1H-pyrazol-1-yl)benzamido)-4-(4-(2-(5,6,7,8-tetrahydro-1,8-naphthyridin-2-yl)ethyl)piperidin-1-yl)butanoic acid], the concentration for half-maximal inhibition (IC50) is > 1000 nM. Regarding `Cc1nn(C)cc1-c1nn(C)c2c(C(=O)N[C@@H](CCN3CC[C@@H](CCc4ccc5c(n4)NCCC5)C3)C(=O)O)cccc12` [Compound 98], the IC50 was in the range of 250 to 1000 nM. Next, `O=C(N[C@@H](CCN1CC[C@@H](CCc2ccc3c(n2)NCCC3)C1)C(=O)O)c1cccc2[nH]ncc12` [Compound 35]: < 50 nM; `O=C(N[C@@H](CCN1CC[C@@H](CCc2ccc3c(n2)NCCC3)C1)C(=O)O)c1cccs1` [Compound 51]: < 50 nM; `CC(C)(C(=O)N[C@@H](CCN1CC(OCCc2ccc3c(n2)NCCC3)C1)C(=O)O)c1ccccc1` [Compound 120]: 50 to 250 nM. Next, `O=C(N[C@@H](CCN1CC[C@@H](CCc2ccc3c(n2)NCCC3)C1)C(=O)O)c1cccc(-c2cncs2)c1` [Compound 66]: < 50 nM; `O=C(NC1CCN(CC[C@H](NC(=O)C2CCC(F)(F)CC2)C(=O)O)CC1)c1ccc2c(n1)NCCC2` [Compound 33]: > 1000 nM.

`O=C(N[C@@H](CCN1CC[C@@H](CCc2ccc3c(n2)NCCC3)C1)C(=O)O)c1cccc(-c2cscn2)c1` [Compound 65]: the IC50 is 50 to 250 nM. Take `O=C(N[C@@H](CCN1CC[C@@H](CCc2ccc3c(n2)NCCC3)C1)C(=O)O)c1ccc(C(F)(F)F)cc1` [Compound 10a, (S)-4-((R)-3-(2-(5,6,7,8-tetrahydro-1,8-naphthyridin-2-yl)ethyl)pyrrolidin-1-yl)-2-(4-(trifluoromethyl)benzamido)butanoic acid]: the IC50 is < 50 nM. Next, `O=C(O)[C@H](CCN1CC(OCCc2ccc3c(n2)NCCC3)C1)NC(=O)[C@@H]1CCCN1c1ccccc1` [Compound 127]: < 50 nM; `CCC(CC)C(=O)N[C@@H](CCN1CC[C@@H](CCc2ccc3c(n2)NCCC3)C1)C(=O)O` [Compound 95]: < 50 nM. As for `Cn1ncc2c(C(=O)N[C@@H](CCN3CC[C@@H](CCc4ccc5c(n4)NCCC5)C3)C(=O)O)cccc21` [Compound 27a, (S)-2-(1-methyl-1H-indazole-4-carboxamido)-4-((R)-3-(2-(5,6,7,8-tetrahydro-1,8-naphthyridin-2-yl)ethyl)pyrrolidin-1-yl)butanoic acid], the IC50 was < 50 nM. For `CC(C)(O)CN1CCC[C@H]1C(=O)N[C@@H](CCN1CC[C@@H](OCCc2ccc3c(n2)NCCC3)C1)C(=O)O` [Compound 142], the IC50 was > 1000 nM.

With `O=C(N[C@@H](CCN1CCC[C@@](F)(CCc2ccc3c(n2)NCCC3)C1)C(=O)O)c1cc(F)cc(F)c1` [Compound 97], the IC50 is 50 to 250 nM. The same measure for `O=C(N[C@H](CCN1CC[C@@H](CCc2ccc3c(n2)NCCC3)C1)C(=O)O)c1cccc(-c2ncco2)c1` [Compound 88]: < 50 nM.
